Assay results taken from ChEMBL document CHEMBL5137128, “Daphnoretin Arrests the Cell Cycle and Induces Apoptosis in Human Breast Cancer Cells” (J Nat Prod, 2022).
The source made the active and inactive calls. The rule behind the calls is not given here.

What was measured:
MDA-MB-231 [1] = test: Induction of cell cycle arrest in human MDA-MB-231 cells assessed as G0-G1 phase cells at 2 uM incubated for 24 hrs by propidium iodide staining based flow cytometry analysis (reference value: 66.84 %); type: functional
MCF7 [2] = test: Induction of apoptosis in human MCF7 cells assessed as decrease in Bcl-2 level at 1 to 4 uM measured upto 24 hrs by Western blot analysis; type: functional, cell-based; settings: dose 1-4 µM
MDA-MB-231 [3] = test: Induction of apoptosis in human MDA-MB-231 cells assessed as nuclear condensation at 0.5 to 2 uM incubated for 24 hrs by Hoechst 33258 staining based light microscopic analysis; type: functional, cell-based; settings: dose 0.5-2 µM
MDA-MB-231 [4] = test: Induction of morphological changes in human MDA-MB-231 cells assessed as decrease in cell numbers at 0.5 to 2 uM by electron microscopic analysis; type: functional, cell-based; settings: dose 0.5-2 µM
MCF7 [5] = test: Induction of cell cycle arrest in human MCF7 cells assessed as accumulation of S phase cells at 1 uM incubated for 24 hrs by propidium iodide staining based flow cytometry analysis (reference value: 27.84 %); type: functional
MCF7 [6] = test: Induction of cell cycle arrest in human MCF7 cells assessed as G0-G1 phase cells at 4 uM incubated for 24 hrs by propidium iodide staining based flow cytometry analysis (reference value: 71.30 %); type: functional
MCF7 [7] = test: Induction of cell cycle arrest in human MCF7 cells assessed as G0-G1 phase cells at 1 uM incubated for 24 hrs by propidium iodide staining based flow cytometry analysis (reference value: 71.30 %); type: functional
MCF7 [8] = test: Induction of cell cycle arrest in human MCF7 cells assessed as accumulation of S phase cells at 2 uM incubated for 24 hrs by propidium iodide staining based flow cytometry analysis (reference value: 27.84 %); type: functional
MDA-MB-231 [9] = test: Induction of cell cycle arrest in human MDA-MB-231 cells assessed as accumulation of S phase cells at 1 uM incubated for 24 hrs by propidium iodide staining based flow cytometry analysis (reference value: 28.71 %); type: functional
MDA-MB-231 [10] = test: Antiproliferative activity human MDA-MB-231 cells assessed as inhibition of cell proliferation at 0.1 to 8 uM incubated for 48 hrs by MTT assay; type: functional, cell-based; settings: dose 0.1-8 µM
MCF7 [11] = test: Induction of apoptosis in human MCF7 cells assessed as nuclear condensation at 1 to 4 uM incubated for 24 hrs by Hoechst 33258 staining based light microscopic analysis; type: functional, cell-based; settings: dose 1-4 µM
MDA-MB-231 [12] = test: Induction of cell cycle arrest in human MDA-MB-231 cells assessed as G2/M phase cells at 0.5 uM incubated for 24 hrs by propidium iodide staining based flow cytometry analysis (reference value: 4.44 %); type: functional
MCF7 [13] = test: Induction of morphological changes in human MCF7 cells assessed as deformed cells at 1 to 4 uM by electron microscopic analysis; type: functional, cell-based; settings: dose 1-4 µM
MDA-MB-231 [14] = test: Inhibition of PI3K phosphorylation in human MDA-MB-231 cells at 0.5 to 2 uM by Western blot analysis; type: cell-based; settings: dose 0.5-2 µM
MCF7 [15] = test: Inhibition of AKT phosphorylation in human MCF7 cells at 1 to 4 uM by Western blot analysis; type: cell-based; settings: dose 1-4 µM
MDA-MB-231 [16] = test: Induction of cell cycle arrest in human MDA-MB-231 cells assessed as G0-G1 phase cells at 1 uM incubated for 24 hrs by propidium iodide staining based flow cytometry analysis (reference value: 66.84 %); type: functional
MCF7 [17] = test: Antiproliferative activity human MCF7 cells assessed as inhibition of cell proliferation at 0.1 to 8 uM incubated for 48 hrs by MTT assay; type: functional, cell-based; settings: dose 0.1-8 µM
MCF7 [18] = test: Induction of apoptosis in human MCF7 cells assessed as increase in cleaved caspase-3 level at 1 to 4 uM measured upto 24 hrs by Western blot analysis; type: functional, cell-based; settings: dose 1-4 µM
MDA-MB-231 [19] = test: Induction of apoptosis in human MDA-MB-231 cells assessed as increase in total apoptotic rate at 0.5 to 2 uM incubated for 24 hrs by propidium iodide staining based flow cytometry analysis relative to control; type: functional, cell-based; settings: dose 0.5-2 µM
MCF7 [20] = test: Induction of cell cycle arrest in human MCF7 cells assessed as G2/M phase cells at 2 uM incubated for 24 hrs by propidium iodide staining based flow cytometry analysis (reference value: 0.86 %); type: functional
MDA-MB-231 [21] = test: Induction of apoptosis in human MDA-MB-231 cells assessed as increase in Bax level at 0.5 to 2 uM measured upto 24 hrs by Western blot analysis; type: functional, cell-based; settings: dose 0.5-2 µM
MDA-MB-231 [22] = test: Induction of cell cycle arrest in human MDA-MB-231 cells assessed as G2/M phase cells at 1 uM incubated for 24 hrs by propidium iodide staining based flow cytometry analysis (reference value: 4.44 %); type: functional
MCF7 [23] = test: Induction of cell cycle arrest in human MCF7 cells assessed as downregulation of cyclin E expression at 1 to 4 uM measured upto 24 hrs by Western blot analysis relative to control; type: functional, cell-based; settings: dose 1-4 µM
MCF7 [24] = test: Induction of cell cycle arrest in human MCF7 cells assessed as G2/M phase cells at 1 uM incubated for 24 hrs by propidium iodide staining based flow cytometry analysis (reference value: 0.86 %); type: functional
MCF7 [25] = test: Induction of morphological changes in human MCF7 cells assessed as cell shrinkage at 1 to 4 uM by electron microscopic analysis; type: functional, cell-based; settings: dose 1-4 µM
MCF7 [26] = test: Induction of morphological changes in human MCF7 cells assessed as decrease in cell numbers at 1 to 4 uM by electron microscopic analysis; type: functional, cell-based; settings: dose 1-4 µM

COc1cc2cc(Oc3ccc4ccc(=O)oc4c3)c(=O)oc2cc1O [DAPHNORETIN]
Activity (MDA-MB-231 [1]): 36.99%
Activity (MCF7 [2]): Active
Activity (MDA-MB-231 [3]): Active
Activity (MDA-MB-231 [4]): Active
Activity (MCF7 [5]): 38.59%
Activity (MCF7 [6]): 51.27%
Activity (MCF7 [7]): 59.49%
Activity (MCF7 [8]): 43.73%
Activity (MDA-MB-231 [9]): 45.58%
Activity (MDA-MB-231 [10]): Active
Activity (MCF7 [11]): Active
Activity (MDA-MB-231 [12]): 9.33%
Activity (MCF7 [13]): Active
inhibition (MDA-MB-231 [14]): Active
inhibition (MCF7 [15]): Active
Activity (MDA-MB-231 [16]): 46%
Activity (MCF7 [17]): Active
Activity (MCF7 [18]): Active
Activity (MDA-MB-231 [19]): Active
Activity (MCF7 [20]): 5.32%
Activity (MDA-MB-231 [21]): Active
Activity (MDA-MB-231 [22]): 8.43%
Activity (MCF7 [23]): Active
Activity (MCF7 [24]): 1.92%
Activity (MCF7 [25]): Active
Activity (MCF7 [26]): Active
